In US20230365592A1 (Agios Pharmaceuticals, Inc., priority 2022, published 2023):

biological target: T1, human PAH with the R408W mutation (Homo sapiens, UniProt P00439, R408W); test: Cell Based Phenylalanine Flux Assay; conditions: A375 cells expressing human R408W PAH; 24 hrs compound incubation; 13C-Tyrosine by LC-MS; average where tested multiple times; read-out: AC50;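 also: after compound treatment, cells received sepiapterin plus isotope-labelled Phenylalanine for 4 hours, then labelled Tyrosine in the medium was quantified, 10-point 2-fold dilution series run in duplicate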
T1 construct: expressed in transfected cells
T1 sequence (P00439 1-452 R408W): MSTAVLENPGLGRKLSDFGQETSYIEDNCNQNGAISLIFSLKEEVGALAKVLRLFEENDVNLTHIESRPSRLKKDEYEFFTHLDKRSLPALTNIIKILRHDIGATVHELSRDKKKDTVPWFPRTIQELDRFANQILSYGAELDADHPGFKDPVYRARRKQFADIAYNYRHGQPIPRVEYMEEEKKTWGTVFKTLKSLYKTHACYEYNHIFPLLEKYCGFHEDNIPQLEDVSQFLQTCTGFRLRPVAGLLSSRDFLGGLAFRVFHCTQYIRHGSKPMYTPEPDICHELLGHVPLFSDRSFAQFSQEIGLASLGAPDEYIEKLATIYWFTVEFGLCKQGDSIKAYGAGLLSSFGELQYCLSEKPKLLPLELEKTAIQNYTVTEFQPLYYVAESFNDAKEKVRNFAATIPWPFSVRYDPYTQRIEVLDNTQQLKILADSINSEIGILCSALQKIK

AC50	Structure (SMILES)
500 to 1000 nM	O=C(c1nnc(-c2ncccn2)o1)N1CCc2[nH]cnc2[C@H]1c1cc2c(F)cccn2n1 [Example 1313, (S)-(4-(4-fluoropyrazolo[1,5-a]pyridin-2-yl)-6,7-dihydro-1H-imidazo[4,5-c]pyridin-5(4H)-yl)(5-(pyrimidin-2-yl)-1,3,4-oxadiazol-2-yl)methanone]
< 500 nM	Cn1cc(-c2nnc(C(=O)N3CCc4[nH]cnc4[C@H]3c3cc4c(C(F)F)cccn4n3)o2)cn1 [Example 1316, (S)-(4-(4-(difluoromethyl)pyrazolo[1,5-a]pyridin-2-yl)-6,7-dihydro-1H-imidazo[4,5-c]pyridin-5(4H)-yl)(5-(1-methyl-1H-pyrazol-4-yl)-1,3,4-oxadiazol-2-yl)methanone]
1000 to 5000 nM	Cn1cc(-c2nnc(C(=O)N3CCc4[nH]cnc4[C@@H]3c3cc4c(C(F)F)cccn4n3)o2)cn1 [Example 1317, (R)-(4-(4-(difluoromethyl)pyrazolo[1,5-a]pyridin-2-yl)-6,7-dihydro-1H-imidazo[4,5-c]pyridin-5(4H)-yl)(5-(1-methyl-1H-pyrazol-4-yl)-1,3,4-oxadiazol-2-yl)methanone]
< 500 nM	CC1(c2nnc(C(=O)N3CCc4[nH]cnc4[C@H]3c3cc4c(C(F)(F)F)cccn4n3)o2)CC1 [Example 1325, (S)-(5-(1-methylcyclopropyl)-1,3,4-oxadiazol-2-yl)(4-(4-(trifluoromethyl)pyrazolo[1,5-a]pyridin-2-yl)-6,7-dihydro-1H-imidazo[4,5-c]pyridin-5(4H)-yl)methanone]
< 500 nM	Cc1ncccc1-c1nnc(C(=O)N2CCc3[nH]cnc3[C@H]2c2cc3c(F)cccn3n2)o1 [Example 1328, (S)-(4-(4-fluoropyrazolo[1,5-a]pyridin-2-yl)-6,7-dihydro-1H-imidazo[4,5-c]pyridin-5(4H)-yl)(5-(2-methylpyridin-3-yl)-1,3,4-oxadiazol-2-yl)methanone]
< 500 nM	Cc1ncccc1-c1nnc(C(=O)N2CCc3[nH]cnc3[C@H]2c2cc3c(C)cccn3n2)o1 [Example 1330, (S)-(4-(4-methylpyrazolo[1,5-a]pyridin-2-yl)-6,7-dihydro-1H-imidazo[4,5-c]pyridin-5(4H)-yl)(5-(2-methylpyridin-3-yl)-1,3,4-oxadiazol-2-yl)methanone]
< 500 nM	Cc1ncccc1-c1nnc(C(=O)N2CCc3[nH]cnc3[C@H]2c2cc3cccc(Cl)n3n2)o1 [Example 1334, (S)-(4-(7-chloropyrazolo[1,5-a]pyridin-2-yl)-6,7-dihydro-1H-imidazo[4,5-c]pyridin-5(4H)-yl)(5-(2-methylpyridin-3-yl)-1,3,4-oxadiazol-2-yl)methanone]
1000 to 5000 nM	Cc1cccc2cc([C@H]3c4nc[nH]c4CCN3C(=O)c3nnc(-c4ncccn4)o3)nn12 [Example 1336, (R)-(4-(7-methylpyrazolo[1,5-a]pyridin-2-yl)-6,7-dihydro-1H-imidazo[4,5-c]pyridin-5(4H)-yl)(5-(pyrimidin-2-yl)-1,3,4-oxadiazol-2-yl)methanone]
< 500 nM	Cc1cccc2cc([C@@H]3c4nc[nH]c4CCN3C(=O)c3nnc(-c4cnccn4)o3)nn12 [Example 1339, (S)-(4-(7-methylpyrazolo[1,5-a]pyridin-2-yl)-6,7-dihydro-1H-imidazo[4,5-c]pyridin-5(4H)-yl)(5-(pyrazin-2-yl)-1,3,4-oxadiazol-2-yl)methanone]
500 to 1000 nM	Cc1ncccc1-c1nnc(C(=O)N2CCc3[nH]cnc3[C@H]2c2cc3cccc(C(F)(F)F)n3n2)o1 [Example 1342, (S)-(5-(2-methylpyridin-3-yl)-1,3,4-oxadiazol-2-yl)(4-(7-(trifluoromethyl)pyrazolo[1,5-a]pyridin-2-yl)-6,7-dihydro-1H-imidazo[4,5-c]pyridin-5(4H)-yl)methanone]
1000 to 5000 nM	Cc1ncccc1-c1nnc(C(=O)N2CCc3[nH]cnc3[C@@H]2c2cc3cccc(C(F)(F)F)n3n2)o1 [Example 1343, (R)-(5-(2-methylpyridin-3-yl)-1,3,4-oxadiazol-2-yl)(4-(7-(trifluoromethyl)pyrazolo[1,5-a]pyridin-2-yl)-6,7-dihydro-1H-imidazo[4,5-c]pyridin-5(4H)-yl)methanone]
1000 to 5000 nM	COc1ccc(-c2nnc(C(=O)N3CCc4[nH]cnc4[C@H]3c3cc4cccc(C(F)(F)F)n4n3)o2)cn1 [Example 1344, (S)-(5-(6-methoxypyridin-3-yl)-1,3,4-oxadiazol-2-yl)(4-(7-(trifluoromethyl)pyrazolo[1,5-a]pyridin-2-yl)-6,7-dihydro-1H-imidazo[4,5-c]pyridin-5(4H)-yl)methanone]
1000 to 5000 nM	COc1ccc(-c2nnc(C(=O)N3CCc4[nH]cnc4[C@@H]3c3cc4cccc(C(F)(F)F)n4n3)o2)cn1 [Example 1345, (R)-(5-(6-methoxypyridin-3-yl)-1,3,4-oxadiazol-2-yl)(4-(7-(trifluoromethyl)pyrazolo[1,5-a]pyridin-2-yl)-6,7-dihydro-1H-imidazo[4,5-c]pyridin-5(4H)-yl)methanone]
1000 to 5000 nM	O=C(c1nnc(-c2cccnc2)o1)N1CCc2[nH]cnc2[C@@H]1c1cc2ccccn2n1 [Example 1347, (R)-(4-(pyrazolo[1,5-a]pyridin-2-yl)-6,7-dihydro-1H-imidazo[4,5-c]pyridin-5(4H)-yl)(5-(pyridin-3-yl)-1,3,4-oxadiazol-2-yl)methanone]
< 500 nM	Cc1c(-c2nnc(C(=O)N3CCc4[nH]cnc4[C@H]3c3cc4c(C(F)F)cccn4n3)o2)cnn1C [Example 1348, (S)-(4-(4-(difluoromethyl)pyrazolo[1,5-a]pyridin-2-yl)-6,7-dihydro-1H-imidazo[4,5-c]pyridin-5(4H)-yl)(5-(1,5-dimethyl-1H-pyrazol-4-yl)-1,3,4-oxadiazol-2-yl)methanone]

Further lines, the compound ahead of its results:

Structure (SMILES)	AC50
Cc1cccc2cc([C@@H]3c4nc[nH]c4CCN3C(=O)c3nnc(C4(C)CC4)o3)nn12 [Example 1319, (S)-(5-(1-methylcyclopropyl)-1,3,4-oxadiazol-2-yl)(4-(7-methylpyrazolo[1,5-a]pyridin-2-yl)-6,7-dihydro-1H-imidazo[4,5-c]pyridin-5(4H)-yl)methanone]	< 500 nM
CC1(c2nnc(C(=O)N3CCc4[nH]cnc4[C@@H]3c3cc4c(Cl)cccn4n3)o2)CC1 [Example 1320, (R)-(4-(4-chloropyrazolo[1,5-a]pyridin-2-yl)-6,7-dihydro-1H-imidazo[4,5-c]pyridin-5(4H)-yl)(5-(1-methylcyclopropyl)-1,3,4-oxadiazol-2-yl)methanone]	1000 to 5000 nM
CC1(c2nnc(C(=O)N3CCc4[nH]cnc4[C@H]3c3cc4c(Cl)cccn4n3)o2)CC1 [Example 1321, (S)-(4-(4-chloropyrazolo[1,5-a]pyridin-2-yl)-6,7-dihydro-1H-imidazo[4,5-c]pyridin-5(4H)-yl)(5-(1-methylcyclopropyl)-1,3,4-oxadiazol-2-yl)methanone]	< 500 nM
Cc1cccn2nc([C@H]3c4nc[nH]c4CCN3C(=O)c3nnc(C4(C)CC4)o3)cc12 [Example 1322, (R)-(5-(1-methylcyclopropyl)-1,3,4-oxadiazol-2-yl)(4-(4-methylpyrazolo[1,5-a]pyridin-2-yl)-6,7-dihydro-1H-imidazo[4,5-c]pyridin-5(4H)-yl)methanone]	1000 to 5000 nM
Cc1cccn2nc([C@@H]3c4nc[nH]c4CCN3C(=O)c3nnc(C4(C)CC4)o3)cc12 [Example 1323, (S)-(5-(1-methylcyclopropyl)-1,3,4-oxadiazol-2-yl)(4-(4-methylpyrazolo[1,5-a]pyridin-2-yl)-6,7-dihydro-1H-imidazo[4,5-c]pyridin-5(4H)-yl)methanone]	< 500 nM
CC1(c2nnc(C(=O)N3CCc4[nH]cnc4[C@@H]3c3cc4c(C(F)(F)F)cccn4n3)o2)CC1 [Example 1324, (R)-(5-(1-methylcyclopropyl)-1,3,4-oxadiazol-2-yl)(4-(4-(trifluoromethyl)pyrazolo[1,5-a]pyridin-2-yl)-6,7-dihydro-1H-imidazo[4,5-c]pyridin-5(4H)-yl)methanone]	1000 to 5000 nM
Cc1ncccc1-c1nnc(C(=O)N2CCc3[nH]cnc3[C@@H]2c2cc3c(C)cccn3n2)o1 [Example 1331, (R)-(4-(4-methylpyrazolo[1,5-a]pyridin-2-yl)-6,7-dihydro-1H-imidazo[4,5-c]pyridin-5(4H)-yl)(5-(2-methylpyridin-3-yl)-1,3,4-oxadiazol-2-yl)methanone]	1000 to 5000 nM
Cc1ncccc1-c1nnc(C(=O)N2CCc3[nH]cnc3[C@@H]2c2cc3cccc(Cl)n3n2)o1 [Example 1335, (R)-(4-(7-chloropyrazolo[1,5-a]pyridin-2-yl)-6,7-dihydro-1H-imidazo[4,5-c]pyridin-5(4H)-yl)(5-(2-methylpyridin-3-yl)-1,3,4-oxadiazol-2-yl)methanone]	> 5000 nM
Cc1cccc2cc([C@@H]3c4nc[nH]c4CCN3C(=O)c3nnc(-c4ncccn4)o3)nn12 [Example 1337, (S)-(4-(7-methylpyrazolo[1,5-a]pyridin-2-yl)-6,7-dihydro-1H-imidazo[4,5-c]pyridin-5(4H)-yl)(5-(pyrimidin-2-yl)-1,3,4-oxadiazol-2-yl)methanone]	500 to 1000 nM
Cc1cccc2cc([C@H]3c4nc[nH]c4CCN3C(=O)c3nnc(-c4cnccn4)o3)nn12 [Example 1338, (R)-(4-(7-methylpyrazolo[1,5-a]pyridin-2-yl)-6,7-dihydro-1H-imidazo[4,5-c]pyridin-5(4H)-yl)(5-(pyrazin-2-yl)-1,3,4-oxadiazol-2-yl)methanone]	> 5000 nM
